Source: publication PMC3661511, “Impact of Glucocorticoid Receptor Density on Ligand-Independent Dimerization, Cooperative Ligand-Binding and Basal Priming of Transactivation: A Cell Culture Model” (PLoS ONE, 2013)
Numbering of substitutions follows the chain as printed. Names may count otherwise. Where two headings read alike, the source gives them in different places. Values belong to the molecule of their own block, whether it stands above or below them.

Legend:
[1] = target: GRwt; settings: COS-1 cells transiently transfected with high levels of GRwt; cited from earlier work
[2] = target: T1, GRwt (Homo sapiens, UniProt P04150); test: Promoter-reporter transactivation (pTAT-GRE2-E1b-luc) in COS-1 cells, GRwt; type: cell-based; settings: for EC50: read-out: Potency (log EC50) (converted)
T1 sequence (P04150 1-777): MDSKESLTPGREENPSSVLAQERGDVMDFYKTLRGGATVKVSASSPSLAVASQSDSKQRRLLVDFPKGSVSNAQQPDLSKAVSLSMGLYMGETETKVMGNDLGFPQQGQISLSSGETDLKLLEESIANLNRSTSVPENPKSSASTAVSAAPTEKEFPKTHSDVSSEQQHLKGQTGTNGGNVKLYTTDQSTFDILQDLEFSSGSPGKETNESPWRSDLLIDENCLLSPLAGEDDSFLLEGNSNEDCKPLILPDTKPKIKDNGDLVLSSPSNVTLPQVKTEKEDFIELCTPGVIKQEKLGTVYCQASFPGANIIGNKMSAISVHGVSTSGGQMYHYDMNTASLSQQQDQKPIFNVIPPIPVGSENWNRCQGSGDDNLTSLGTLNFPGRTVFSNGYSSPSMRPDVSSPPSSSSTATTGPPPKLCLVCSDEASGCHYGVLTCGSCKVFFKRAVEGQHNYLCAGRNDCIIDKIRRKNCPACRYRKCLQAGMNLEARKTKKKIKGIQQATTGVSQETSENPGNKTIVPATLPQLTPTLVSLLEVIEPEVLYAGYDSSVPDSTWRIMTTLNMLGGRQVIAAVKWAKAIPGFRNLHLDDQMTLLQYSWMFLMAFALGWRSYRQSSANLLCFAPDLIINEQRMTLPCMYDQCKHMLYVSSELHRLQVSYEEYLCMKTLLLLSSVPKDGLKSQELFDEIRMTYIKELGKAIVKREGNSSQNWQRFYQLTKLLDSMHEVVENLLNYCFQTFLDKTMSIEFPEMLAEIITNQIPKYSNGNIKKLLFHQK
Procedure: (§1) Cells were transfected with low, medium or high GRwt, low or medium GRdim and 3000 ng pTAT-GRE2-E1b-luc filled to 14550 ng total plasmid with empty vector. Cells were replated 24 h later into 96-well plates (4×10^4 cells/well) in charcoal-stripped DMEM. […] Cells were lysed with 30 µl of passive lysis buffer (Promega), and subjected to a freeze thaw cycle. Luciferase activity was determined using a luciferase assay kit (Promega). Light emission was measured in a Veritas microplate luminometer (Turner Biosystems). Luciferase relative light units were normalized against protein concentrations. Sigmoidal dose-response curves were fit to the experimental data which generated basal induction (bottom), maximal induction (top-bottom), fold-induction (top/bottom), and log EC50.

[3] = target: T2, GRdim (Homo sapiens, UniProt P04150, A458T); test: Promoter-reporter transactivation (pTAT-GRE2-E1b-luc) in COS-1 cells, GRdim; type: cell-based
T2 sequence (P04150 1-777 A458T): T1 sequence (P04150 1-777) with A458T
Procedure: as §1

[4] = target: T3, Flag-tagged human glucocorticoid receptor alpha, wild type (pEFFlaghGRα) (human, UniProt P04150 1-777); test: co-IP; medium or high GR levels co-transfected in COS-1 cells; cells treated 1 h with vehicle (ethanol) or 10^-6 M DEX; 200 µg lysate protein on anti-FLAG M2 affinity gel beads, 16 h at 4°C, Buffer A with 2.5% casein; immunoblot with anti-GR; GFP-GR pull-down normalized to Flag-GR; settings: partners not purified
T3 construct: glucocorticoid receptor alpha (hGRα), human, wild type; construct pEFFlaghGRα, molecular mass 96 kDa as printed; also called Flag-GR; Flag-GRwt; source: COS-1, transiently transfected (DEAE-dextran), in lysate
T3 sequence (looked up): T1 sequence (P04150 1-777)

[5] = target: T3, Flag-tagged human glucocorticoid …; test: co-IP; low GR levels co-transfected in COS-1 cells; cells treated 1 h with vehicle (ethanol), 10^-6 M DEX or 10^-5 M CpdA; 600 µg lysate protein on anti-FLAG M2 affinity gel beads, 16 h at 4°C, Buffer A with 2.5% casein; immunoblot with anti-GR; GFP-GR pull-down normalized to Flag-GR; settings: partners not purified

Molecule: C[C@@H]1C[C@H]2[C@@H]3CCC4=CC(=O)C=C[C@]4(C)[C@@]3(F)[C@@H](O)C[C@]2(C)[C@@]1(O)C(=O)CO [DEX, Dexamethasone]
Kd [1]: 12.6 nM

Molecule: CC#C[C@]1(O)CC[C@H]2[C@@H]3CCC4=CC(=O)CCC4=C3[C@@H](c3ccc(N(C)C)cc3)C[C@@]21C [RU486, mifepristone]
Maximal induction (RLU/mg protein) ([2]; GRwt concentration Low): 1.8 x 10^4 ± 3.7 x 10^3 RLU/mg protein | Maximal induction (RLU/mg protein) ([2]; GRwt concentration Medium): 6.4 x 10^4 ± 7.5 x 10^3 RLU/mg protein | Maximal induction (RLU/mg protein) ([3]; GRdim concentration Low): 7.1 x 10^4 ± 8.7 x 10^3 RLU/mg protein | Maximal induction (RLU/mg protein) ([3]; GRdim concentration Medium): 4.0 x 10^5 ± 7.8 x 10^4 RLU/mg protein

Second part, the molecule after the results:

Maximal induction (RLU/mg protein) ([2]; GRwt concentration Low): 2.8 x 10^4 ± 7.2 x 10^3 RLU/mg protein | Maximal induction (RLU/mg protein) ([2]; GRwt concentration Medium): 8.8 x 10^4 ± 6 x 10^3 RLU/mg protein | Maximal induction (RLU/mg protein) ([3]; GRdim concentration Low): 3.7 x 10^4± 8.3 x 10^3 RLU/mg protein | Maximal induction (RLU/mg protein) ([3]; GRdim concentration Medium): 2.2 x 10^5 ± 5.7 x 10^4 RLU/mg protein
Molecule: C[C@]12CCC(=O)C=C1CC[C@@H]1[C@@H]2[C@@H](O)C[C@@]2(C)[C@H]1CC[C@]2(O)C(=O)CO [F, cortisol]

Maximal induction (RLU/mg protein) ([2]; GRwt concentration Low): 3.5 x 10^4 ± 8.3 x 10^3 RLU/mg protein | EC50 ([2]; GRwt concentration Low, pTAT-GRE2-Elb-luc, 24h): 23.4 nM | Maximal induction (RLU/mg protein) ([2]; GRwt concentration Medium): 1.5 x 10^5 ± 2.3 x 10^4 RLU/mg protein | EC50 ([2]; GRwt concentration Medium): 8.71 nM
Molecule: CC(=O)O[C@]1(C(C)=O)CC[C@H]2[C@@H]3C[C@H](C)C4=CC(=O)CC[C@]4(C)[C@H]3CC[C@@]21C [MPA, medroxyprogesterone acetate]

GFP-GR pull-down after ethanol, relative to DEX-induced GRwt set at 100 percent (high GR level) [4]: 36 to 66% | GFP-GR pull-down after ethanol, relative to DEX-induced GRwt set at 100 percent (low GR level) [5]: 36 to 66%
B1: GFP-tagged dimerization-deficient glucocorticoid receptor (pEGFP-C2-GRA477T, carrying the GRdim sequence from pHisGRA458T) (receptor, human, UniProt P04150 1-777, looked up)
chain: T1 sequence (P04150 1-777) with A458T
notes: the plasmid's name says A477T, the text A458T; also called GFP-GRdim; source: COS-1, transiently transfected (DEAE-dextran), in lysate
